US20210308028A1, “Compositions and Methods for Maintaining and Protecting Tissue Integrity and Barrier Function” (Colgate-Palmolive Company, priority 2020, published 2021)

Assays:
[1] = system: B11 gingival keratinocytes treated with TNF-α; test: FITC-dextran paracellular transport with TNF-α challenge; format: cell-based, human; details: Example 5, FIGS. 25, 28, 31, 32; S1: the two higher percentages
Protocol: The ability of test composition samples to enhance epithelial barrier integrity was assessed by monitoring the paracellular transport of FITC-conjugated 4.4-kDa dextran (FD-4; Sigma-Aldrich Canada Ltd.) across the keratinocyte layer. Briefly, B11 cells were cultured on Transwell filters, and FD-4 ([…] in culture medium) was added in the apical compartment in the presence of the test composition under investigation. Fluorescence in the basolateral compartment was measured at 0, 4, 8, 24, and 48 h using a Synergy 2 microplate reader (BioTek Instrument, Winooski, Vt., USA).
(§1) Assays exposed cells to either TNFα only or TNFα+test composition. TNFα is known to cause tissue damage. A stock solution of recombinant TNF-α is prepared in sterile distilled water at 100 μg/ml. Thereafter, dilutions are made in keratinocyte culture medium. First dilution is 1/1000 to obtain 100 ng/ml. TNF-α and the test compounds are added simultaneously.
Gingival keratinocytes were cultured in the apical chamber of Transwell™ inserts as described above. Immediately after adding fluorescein isothiocyanate-conjugated dextran of 4.4 kDa (FD-4; 1 mg/ml in culture medium) to the apical compartment, the formulations under investigation were added in presence of recombinant TNF-α (100 ng/ml). Fluorescence in the basolateral compartment was recorded after 0, 2, 6, 24, and 48 h of incubation using a Synergy 2 microplate reader (BioTek Instruments; Winooski, Vt., USA).

[2] = system: B11 gingival keratinocytes challenged with P. gingivalis; format: cell-based, human; details: P. gingivalis MOI=10^4; Example 4, FIGS. 15, 18, 21
Protocol: (§2) Tight junction integrity was assessed by determining the trans-epithelial electrical resistance (TER). B11 gingival keratinocytes were seeded onto Costar™ Transwell™ clear polyester membrane inserts (6.5-mm diameter; 0.4-μm pore size; Corning Co., Cambridge, Mass., USA) at 3×10^5 cells per insert. The basolateral and apical compartments were filled with 0.6 mL and 0.1 mL of complete K-SFM, respectively. Following a 72-h incubation, the conditioned medium was replaced with antibiotic-free K-SFM, and the cells were incubated for a further 16 h. The TER values were measured using an Ohm/voltmeter (EVOM2; World Precision Instruments, Sarasota, Fla., USA) at 0, 4, 8, 24, 48, and 72 h. Resistance values were calculated in Ohms (Ω)/cm 2 by multiplying the resistance values by the filter surface area. Results were expressed as percentage of the basal control values measured at time 0 h (100% values) for each condition.

[3] = system: B11 gingival keratinocytes treated with TNF-α; test: TER with TNF-α challenge; format: cell-based, human; details: Example 5, FIGS. 24, 27, 29, 30
Protocol: as §2, §1
Keratinocyte barrier integrity was determined by monitoring transepithelial electrical resistance (TER). Briefly, keratinocytes (3×10^5 cells per insert; 0.1 ml) were seeded in the apical compartment of Costar™ Transwell™ clear polyester membrane inserts (6.5 mm in diameter, 0.4 μm pore size; Corning Co., Cambridge, Mass., USA), while the basolateral compartment was filled with 0.6 ml of culture medium. After 72-h of incubation, the conditioned culture medium was replaced with fresh antibiotic-free K-SFM, and the cells were further incubated for 16 h prior treating the cells. Recombinant human TNF-α (100 ng/ml; AnaSpec, Fremont, USA) and the formulations (final dilutions of 1/500, 1/1000, and 1/2000 (v/v for the aqueous solution; w/v for the dentifrice) under investigation were added to the apical compartment. The TER values were monitored using an ohm/voltmeter (EVOM^2; World Precision Instruments, Sarasota, Fla., USA) after 0, 6, 24, and 48 h of incubation. The TER values in Ohms (Ω)/cm^2 were determined by multiplying the resistance values by the surface area of the membrane filter. Results are expressed as the percentage of the basal control value measured at time 0-h (100% value).

[4] = system: B11 immortalized human gingival keratinocyte cell line; test: Transepithelial electrical resistance (TER) of gingival keratinocyte barrier; format: cell-based; details: no challenge; dilutions 1/500, 1/1000, 1/2000 or 0.025-0.2%; multiple time points; FIGS. 6, 9, 12
Protocol: as §2

P. gingivalis = P. gingivalis invasion / translocation through keratinocyte layer; format: cell-based, Porphyromonas gingivalis; details: Example 6, FIGS. 36, 39, 42
Protocol: Assays were performed to determine the extent formulations can inhibit and reduce invasion of cell monolayer by P. gingivalis.
The basolateral and apical compartments were filled with 0.235 mL and 0.075 mL of K-SFM, respectively. Following a 48-h incubation, the conditioned medium was replaced with antibiotic-free K-SFM. To determine the ability of P. gingivalis to penetrate the keratinocyte layer, FITC-labeled bacteria suspended in antibiotic-free K-SFM were added to the apical compartment of the double-chamber system at an MOI of 10^4. […] To evaluate the effect of the Dual Zinc plus Arginine aqueous solution and dentifrice on the invasive capacity of P. gingivalis, the keratinocyte layer was co-incubated with them and the bacteria. The translocation of FITC-labeled bacteria through the keratinocyte barrier was monitored using a Synergy 2 microplate reader by measuring the fluorescence (RUF; excitation wavelength 495 nm; emission wavelength 525 nm) in the medium recovered from the lower chamber following a 24-h incubation in an anaerobic chamber at 37° C.

[5] = system: occludin and zonula occludens-1 in TNF-α-treated gingival keratinocytes; test: Immunofluorescence of tight junction proteins with TNF-α challenge; format: cell-based, human; details: Example 5, FIGS. 26, 33, 34
Protocol: Gingival keratinocytes treated as described above for 12 h were immunostained for zonula occludens-1 and occludin, two tight junction proteins. Briefly, the cells were fixed in 50 mM phosphate-buffered saline (pH 7.2) (PBS) containing 4% paraformaldhehyde for 20 min, permeabilized with 0.1% Triton X-100 for 10 min, and blocked in 3% non-fat milk in 20 mM Tris-HCl (pH 8), 150 mM NaCl, and 0.5% Tween 20 for 40 min. […] After washing with PBS, the cells were then treated with ProLong® Diamond antifade (Life Technologies). The slides were sealed with nail polish and were kept in the dark at 4° C. The localization of tight junction proteins in B11 cells was visualized using an Olympus FSX100 fluorescence microscope and FSX-BSW imaging software (Olympus, Tokyo, Japan). Immunofluorescent staining of tight junction proteins is a qualitative assay.
as §1

Compound | TNFα-induced paracellular permeability to FITC-dextran [1] | TER with P. gingivalis challenge [2] | TER with TNFα challenge [3] | TER measured as a percent of the initial value [4] | invasion of an epithelial cell monolayer by P. gingivalis (P. gingivalis) | TNFα induced cell junction disorganization (immunofluorescence) [5]
[O]=[Zn] [zinc oxide] | protects oral tissue integrity from the deleterious effects caused by the presence of TNFα | protects tissue integrity from damage by P. gingivalis | prevented tissue from the TNFα induced TER decrease | increase in TER values with the increase in sample concentration | inhibits invasion of an epithelial cell monolayer | prevents TNFα induced cell junction disorganization
O=C([O-])CC(O)(CC(=O)[O-])C(=O)[O-].O=C([O-])CC(O)(CC(=O)[O-])C(=O)[O-].[Zn+2].[Zn+2].[Zn+2] [zinc citrate] | protects oral tissue integrity from the deleterious effects caused by the presence of TNFα | protects tissue integrity from damage by P. gingivalis | can prevent tissue from the TNFα induced TER decrease | increase in TER values with the increase in sample concentration | – | –
